Assay results reported in patent publication EP4653008A1, “TRADITIONAL CHINESE MEDICINE COMPOSITION HAVING EFFICACY IN TREATING COLDS AND USE THEREOF” (Shijiazhuang Yiling Pharmaceutical Co., Ltd., priority 2023, dated 2024).

How the values were obtained:
ICR mice [1] = test: ear-swelling in mice caused by xylene; type: in vivo; conditions: 0.50g/kg
Protocol: Referring to the specification and literature documents, the dose of aspirin drug administered to mice was set at 0.50 g/kg, as shown in Table 25.
(§1) A disposable syringe was used to administer the drug at a dosing volume of 10 ml/kg. Animals in the model group were administered with a corresponding volume of the solvent. The administration was carried out for 5 days.
After receiving new experimental animals, they were numbered and subjected to an adaptive feeding for at least 5 days. The grouping was carried out as described previously. 0.5 h after the last administration, the animal was fixed, and the right ear was exposed. The xylene was applied to the middle area of the right ear of the mice by dropwise addition using a pipette, with each 15 µL of xylene applied to dorsal and ventral sides and spread evenly. The left ear was left untreated. After 40 min, the animal was sacrificed by cervical dislocation. Both ears were then cut along the base of the auricle. A punch (7 mm diameter) was used to obtain symmetrical ear tissues from both ears, which were weighed on a precision analytical balance. The weights were recorded, and the degree of swelling and the swelling inhibition rate were calculated. Swelling degree = weight of the right ear tissue - weight of the left ear tissue [formula] [formula]

SD rats = test: fever in rats induced by intraperitoneal injection of LPS; type: in vivo; conditions: 3h after LPS, 26.64 mg/kg
ICR mice [2] = test: writhing in mice caused by acetic acid; type: in vivo; conditions: 5.00 mg/kg
Protocol: Referring to the previous studies in our laboratory and relevant literatures, the dose of indomethacin drug administered to mice was set at 5.00 mg/kg, as shown in Table 23.
as §1
After receiving new experimental animals, they were numbered, subjected to an adaptive feeding for 5 days and grouped as described above. All animals were fasted for more than 12 h before the last administration, and 1 h after the last administration, 0.7% acetic acid was injected into the abdominal cavity of mice at a dose of 10ml/kg to stimulate the visceral and parietal peritoneum, leading to a deep, widespread, and long-time pain. […] The latency period to the onset of writhing and the number of writhing incidents within 15 min were recorded as quantitative indicators of pain.

MDCK = test: in vitro cytotoxicity (CCK-8); type: cell-based, canine; conditions: Canis lupus familiaris; MDCK cells; 72 h; n=3
Protocol: • (1) Test Grouping: The appropriate starting concentration of the pharmaceutical composition was selected for test grouping according to the references. All the pharmaceutical compositions were diluted with serum-free DMEM medium. For the cell control group, only serum-free DMEM medium was used. […] For the positive control drug group, oseltamivir acid as a positive drug was set up at concentrations of 1000, 500, 250, 125, 62.5, and 31.25 µM. […] Recombinant human interferon α2b gel as a positive drug was set up at final concentrations of 1000, 333.33, 111.11, […], 33.33, and 11.11 IU/mL. The blank control group contained only serum-free DMEM medium and no cells. Three replicate wells were set up for each concentration in each group. • (2) Cell Plating: Cells were prepared into a suspension single cells (1×10^4 cells/mL), seeded to a 96-well cell culture plate (100 µL/well), and incubated overnight in a 37°C, 5% CO2 incubator. • (3) Addition of Drug and Test: The culture medium was discarded and the cells were washed twice with 1×PBS. […] After cells were incubated in the incubator for 1-4 h, the OD450 nm value was read using a microplate reader. The inhibition rate of cells and the half maximal inhibitory concentration (IC50) of the tested drugs on cells were calculated. […]

H1HeLa = test: cells; type: cell-based; conditions: Homo sapiens, H1-HeLa, 72 h, n=3
influenza A virus (H3N2) = test: in vitro antiviral assay (CPE, CCK-8); type: cell-based; conditions: MDCK host cells, n=4
influenza B virus (IBV) = test: in vitro antiviral assay (CPE, CCK-8); type: cell-based; conditions: MDCK host cells, n=4
Coxsackievirus B3 (CVB3) [3] = test: viral load in gastrointestinal tissues, coxsackievirus infection model of young rats; type: in vivo, young SD rats
Protocol: Each group consisted of 50 animals.
Homogenization was carried out using a high-speed homogenizer to prepare a tissue suspension. The suspension was centrifuged at 14000 rpm for 10 min at 4°C and the resulting supernatant was collected. RNA was extracted using the RNA extraction solution, and the extracted RNA was reverse transcribed into c-DNA. The fluorescence intensity of c-DNA obtained by reverse transcription was measured by using absolute quantitative PCR, and the fluorescence intensity of c-DNA was used to reflect the load of coxsackievirus B3 in the tissues of the stomach, small intestine, and large intestine.

TNF-α = TNF-α in tissues (ELISA), coxsackievirus infection model of young rats
IFN-γ = IFN-γ in tissues (ELISA), coxsackievirus infection model of young rats
IL-10 = IL-10 in tissues (ELISA), coxsackievirus infection model of young rats
IL-1β = IL-1β in tissues (ELISA), coxsackievirus infection model of young rats
[4] = tested on: lymphocyte (CD4^+ and CD8^+); test: lymphocytes in blood (flow cytometry), coxsackievirus infection model of young rats; conditions: 120.7mg/kg; for CD4^+/CD8^+: ratio
Coxsackievirus B3 (CVB3) [5] = test: pathological changes of gastrointestinal tract, coxsackievirus infection model of young rats; conditions: animals with this lesion grade (n=10), 120.7 mg/kg
[6] = 3 days after administration, 120.7 mg/kg
[7] = next day after last administration, 120.7mg/kg
[8] = next day after the last administration
[9] = next day after last administration

CC(=O)Oc1ccccc1C(=O)O [Aspirin, aspirin]
Swelling degree (ICR mice [1]): 5.53 ± 2.81 mg | Swelling inhibition rate (%) (ICR mice [1]): 50.34%

CC(C)Cc1ccc(C(C)C(=O)O)cc1 (stereo not shown) [Ibuprofen]
ΔT (ΔT =Tx-T0) °C (SD rats): 0.28 ± 0.48 °C

COc1ccc2c(c1)c(CC(=O)O)c(C)n2C(=O)c1ccc(Cl)cc1 [Indomethacin, indomethacin]
Latency period (ICR mice [2]; onset of writhing): 736.83 ± 258.16 s | Number of writhing incident (ICR mice [2]; within 15 min): 2.17±4.53

CCC(CC)O[C@@H]1C=C(C(=O)O)C[C@H](N)[C@H]1NC(C)=O [Oseltamivir acid, Oseltamivir Acid]
IC50 (MDCK): > 1000 µM | IC50 (H1HeLa): 1 µM | EC50 (influenza A virus (H3N2)): 0.931 µM | EC50 (influenza B virus (IBV)): 0.0806 µM

NC(=O)c1ncn([C@@H]2O[C@H](CO)[C@@H](O)[C@H]2O)n1 [Ribavirin granule, Ribavirin]
viral load, Large intestine (Coxsackievirus B3 (CVB3) [3]; [6]): 515.92±226.55 Copies/mg | viral load, Small intestine (Coxsackievirus B3 (CVB3) [3]; [6]): 947.76±811.44 Copies/mg | viral load, Stomach (Coxsackievirus B3 (CVB3) [3]; [6]): 49.19±11.47 Copies/mg | viral load, Large intestine (Coxsackievirus B3 (CVB3) [3]; [7]): 16346.45±20084.56 Copies/mg | viral load, Small intestine (Coxsackievirus B3 (CVB3) [3]; [7]): 308.03±198.76 Copies/mg | viral load, Stomach (Coxsackievirus B3 (CVB3) [3]; [7]): 104.75±74.10 Copies/mg | TNF-α Large intestine (TNF-α; D4, 120.7mg/kg): 2557 ± 100 pg/mg | TNF-α Small intestine (TNF-α; D4, 120.7mg/kg): 2806 ± 158 pg/mg | TNF-α Large intestine (TNF-α; D8, 120.7 mg/kg): 2491 ± 151 pg/mg | TNF-α Small intestine (TNF-α; D8, 120.7 mg/kg): 2698 ± 145 pg/mg | TNF-α Stomach (TNF-α; D8, 120.7 mg/kg): 2731 ± 96 pg/mg | IFN-γ Large intestine (IFN-γ; D4, 120.7mg/kg): 18364 ± 1203 pg/mg | IFN-γ Small intestine (IFN-γ; D4, 120.7mg/kg): 16295 ± 865 pg/mg | IFN-γ Stomach (IFN-γ; D4, 120.7mg/kg): 18235 ± 816 pg/mg | IFN-γ Large intestine (IFN-γ; D8, 120.7 mg/kg): 19728 ± 926 pg/mg | IFN-γ Small intestine (IFN-γ; D8, 120.7 mg/kg): 17443 ± 1296 pg/mg | IFN-γ Stomach (IFN-γ; D8, 120.7 mg/kg): 16481 ± 1093 pg/mg | IL-10 Large intestine (IL-10; D4, 120.7mg/kg): 497 ± 28 pg/mg | IL-10 Small intestine (IL-10; D4, 120.7mg/kg): 473 ± 23 pg/mg | IL-10 Stomach (IL-10; D4, 120.7mg/kg): 509 ± 37 pg/mg | IL-10 Large intestine (IL-10; D8, 120.7 mg/kg): 496 ± 50 pg/mg | IL-1β Large intestine (IL-1β; D4, 120.7mg/kg): 317 ± 18 pg/mg | IL-1β Small intestine (IL-1β; D4, 120.7mg/kg): 318 ± 23 pg/mg | IL-1β Stomach (IL-1β; D4, 120.7mg/kg): 291 ± 20 pg/mg | IL-1β Large intestine (IL-1β; D8, 120.7 mg/kg): 320 ± 34 pg/mg | IL-1β Small intestine (IL-1β; D8, 120.7 mg/kg): 340 ± 21 pg/mg | IL-1β Stomach (IL-1β; D8, 120.7 mg/kg): 308 ± 24 pg/mg | % lymphocyte CD4^+ ([4]; 3 days after administration): 33.31±8.66% | % lymphocyte CD8^+ ([4]; 3 days after administration): 20.52±5.91% | % lymphocyte CD4^+ [4, 8]: 22.69±4.04% | % lymphocyte CD8^+ [4, 8]: 11.40±2.18% | CD4^+/CD8^+ ([4]; 3 days after administration): 1.65±0.18 | CD4^+/CD8^+ [4, 8]: 2.03±0.37 | Cecum and rectum + (Coxsackievirus B3 (CVB3) [5]; 3 days after administration): 3 | Cecum and rectum + + (Coxsackievirus B3 (CVB3) [5]; 3 days after administration): 0 | Cecum and rectum - (Coxsackievirus B3 (CVB3) [5]; 3 days after administration): 7 | Duodenum and jejunum + (Coxsackievirus B3 (CVB3) [5]; 3 days after administration): 0 | Duodenum and jejunum + + (Coxsackievirus B3 (CVB3) [5]; 3 days after administration): 0 | Ileum and colon + (Coxsackievirus B3 (CVB3) [5]; 3 days after administration): 2 | Ileum and colon + + (Coxsackievirus B3 (CVB3) [5]; 3 days after administration): 3 | Ileum and colon - (Coxsackievirus B3 (CVB3) [5]; 3 days after administration): 5 | Stomach + (Coxsackievirus B3 (CVB3) [5]; 3 days after administration): 9 | Stomach + + (Coxsackievirus B3 (CVB3) [5]; 3 days after administration): 1 | Stomach - (Coxsackievirus B3 (CVB3) [5]; 3 days after administration): 0 | Cecum and rectum + (Coxsackievirus B3 (CVB3) [5]; [9]): 5 | Cecum and rectum + + (Coxsackievirus B3 (CVB3) [5]; [9]): 2 | Cecum and rectum - (Coxsackievirus B3 (CVB3) [5]; [9]): 3 | Duodenum and jejunum + (Coxsackievirus B3 (CVB3) [5]; [9]): 0 | Duodenum and jejunum + + (Coxsackievirus B3 (CVB3) [5]; [9]): 0 | Ileum and colon + (Coxsackievirus B3 (CVB3) [5]; [9]): 2 | Ileum and colon + + (Coxsackievirus B3 (CVB3) [5]; [9]): 3 | Ileum and colon - (Coxsackievirus B3 (CVB3) [5]; [9]): 5 | Stomach + (Coxsackievirus B3 (CVB3) [5]; [9]): 5 | Stomach + + (Coxsackievirus B3 (CVB3) [5]; [9]): 0 | Stomach - (Coxsackievirus B3 (CVB3) [5]; [9]): 5
